Assay results taken from ChEMBL document CHEMBL1800031, “Gold(III) chloride catalyzed regioselective synthesis of pyrano[3,4-b]indol-1(9H)-ones and evaluation of anticancer potential towards human cervix adenocarcinoma” (Bioorg Med Chem Lett, 2011).

System: HeLa
Experiment: Cytotoxicity against human HeLa cells after 48 hrs by MTT assay
Format: functional, cell-based

Cn1c2ccccc2c2cc(-c3ccccc3)oc(=O)c21
IC50: 1900 nM

CCn1c2ccccc2c2cc(-c3ccccc3)oc(=O)c21
IC50: 11300 nM

CCCCn1c2ccccc2c2cc(-c3ccccc3)oc(=O)c21
IC50: 3200 nM

COc1ccc2c(c1)c1cc(-c3ccccc3)oc(=O)c1n2C
IC50: 220 nM

CCn1c2ccc(OC)cc2c2cc(-c3ccccc3)oc(=O)c21
IC50: 1200 nM

CCCCn1c2ccc(OC)cc2c2cc(-c3ccccc3)oc(=O)c21
IC50: 5000 nM

COc1ccc2c(c1)c1cc(-c3ccccc3)oc(=O)c1n2Cc1ccccc1
IC50: 6700 nM

CCCCc1cc2c([nH]c3ccccc32)c(=O)o1
IC50: 2600 nM

O=c1oc(-c2ccccc2)cc2c1[nH]c1ccccc12
IC50: 19100 nM

COc1ccc2[nH]c3c(=O)oc(-c4ccccc4)cc3c2c1
IC50: 330 nM
